pIC50: −log10 of the molar value.
System: SARS-CoV-2
Assay: microbe, parasite or virus in culture
Settings: Severe acute respiratory syndrome coronavirus 2, Vero C1008, 48 h; for IC50: read-out: pIC50 (converted)

Row | Compound | pIC50 | IC50
1 | C[C@H]1O[C@@H](O[C@H]2[C@@H](O)C[C@H](O[C@H]3[C@@H](O)C[C@H](O[C@H]4CC[C@@]5(C)[C@H](CC[C@@H]6[C@@H]5CC[C@]5(C)[C@@H](C7=CC(=O)OC7)CC[C@]65O)C4)O[C@@H]3C)O[C@@H]2C)C[C@H](O)[C@@H]1O [DIGITOXIN] | < 4.70 | > 20 µM
2 | Oc1c(Cl)cc(Cl)c(Cl)c1Cc1c(O)c(Cl)cc(Cl)c1Cl [HEXACHLOROPHENE] | < 4.70 | > 20 µM
3 | CCN1CCN(c2cc(-c3ccccc3)c3ccccc3n2)CC1 | < 4.70 | > 20 µM
4 | O=C(O)[C@H]1CCCNC1 [(S)-NIPECOTIC ACID] | < 4.70 | > 20 µM
5 | Cc1cccc(/C=N/Nc2cc(N3CCOCC3)nc(OCCc3ccccn3)n2)c1 [APILIMOD] | < 4.70 | > 20 µM
6 | O=C1c2ccccc2-c2cccc3cccc1c23 [BENZANTHRONE] | < 4.70 | > 20 µM
7 | OC[C@@H](O)[C@@H](O[C@@H]1O[C@H](CO)[C@H](O)[C@H](O)[C@H]1O)[C@H](O)[C@@H](O)CO [LACTITOL] | < 4.70 | > 20 µM
8 | Oc1ccc2c(c1)CC[C@H](c1ccccc1)[C@@H]2c1ccc(OCCN2CCCC2)cc1 [LASOFOXIFENE] | < 4.70 | > 20 µM
9 | Cn1c(N2CCCCS2(=O)=O)nc(C(=O)NCc2ccc(F)cc2)c(O)c1=O [BMS-707035] | < 4.70 | > 20 µM
10 | COC(=O)CCC(C)C1CCC2C3C(C[C@H](O)[C@]12C)[C@@]1(C)CC[C@@H](O)C[C@H]1C[C@H]3O (some centres undefined) | < 4.70 | > 20 µM
11 | Nc1nccs1 [AMINOTHIAZOLE] | < 4.70 | > 20 µM
12 | CC1(C)CN(C(=O)c2ccc(-c3cccc4nc(NC(=O)C5CC5)nn34)cc2)C1 [SOLCITINIB] | < 4.70 | > 20 µM
13 | CC(=O)Nc1cccc(-n2c(=O)n(C3CC3)c(=O)c3c(Nc4ccc(I)cc4F)n(C)c(=O)c(C)c32)c1 [TRAMETINIB] | < 4.70 | > 20 µM
14 | NCCCCN [PUTRESCINE] | < 4.70 | > 20 µM
15 | CCOC[C@]12Cc3cnn(-c4ccc(F)cc4)c3C=C1CCN(S(=O)(=O)c1ccc(C(F)(F)F)cc1)C2 [CORT 108297] | < 4.70 | > 20 µM
16 | CN(C/C=C/c1ccccc1)Cc1cccc2ccccc12 [NAFTIFINE] | < 4.70 | > 20 µM
17 | C[C@]12CC[C@H]3[C@@H](CCC4=CC(=O)CC[C@@]43C)[C@@H]1CC[C@@H]2C(=O)CO [DESOXYCORTICOSTERONE] | < 4.70 | > 20 µM
18 | CCOc1ccccc1OCCN[C@H](C)Cc1ccc(OC)c(S(N)(=O)=O)c1 [TAMSULOSIN] | < 4.70 | > 20 µM
19 | CC(C)[C@@H](N)C(=O)O | < 4.70 | > 20 µM
20 | CN1CCc2cc3c(cc2[C@H]1[C@@H]1OC(=O)c2c1ccc1c2OCO1)OCO3 [BICUCULLINE] | < 4.70 | > 20 µM
21 | Cc1cc(C)c2c3ccccc3n(Cc3ccc([C@@H](C(=O)N[C@@H](CO)c4ccccc4)C4CCCC4)cc3)c2n1 | < 4.70 | > 20 µM
22 | CC(CCc1ccc(O)cc1)NCCc1ccc(O)c(O)c1 (centres undefined) [DOBUTAMINE] | < 4.70 | > 20 µM
23 | CCCCCCCCCC(=O)O[C@H]1CC[C@H]2[C@@H]3CCC4=CC(=O)CC[C@@H]4[C@H]3CC[C@]12C [NANDROLONE DECANOATE] | < 4.70 | > 20 µM
24 | Cc1cc(Nc2ccc(S(F)(F)(F)(F)F)cc2)n2nc(C(C)(F)F)nc2n1 [DSM-265] | < 4.70 | > 20 µM

Row | Compound | pIC50 | IC50
25 | NC(=O)N/N=C/c1ccc([N+](=O)[O-])o1 [NITROFURAZONE] | < 4.70 | > 20 µM
26 | O=C(COc1ccc(Cl)cc1)N1CCN(Cc2ccc3c(c2)OCO3)CC1 [FIPEXIDE] | < 4.70 | > 20 µM
27 | CNCC(O)c1ccc(OC(=O)C(C)(C)C)c(OC(=O)C(C)(C)C)c1 (centres undefined) [DIPIVEFRIN] | < 4.70 | > 20 µM
28 | CNCCc1ccc(OC(=O)C(C)C)c(OC(=O)C(C)C)c1 [IBOPAMINE] | < 4.70 | > 20 µM
29 | COc1ccccc1N1CCNCC1 | < 4.70 | > 20 µM
30 | C[C@@H](N)C12CC3CC(CC(C3)C1)C2 | < 4.70 | > 20 µM
31 | CC[C@H](C)[C@H]1O[C@]2(C=C[C@@H]1C)C[C@@H]1C[C@@H](C/C=C(/C)[C@@H](O[C@H]3C[C@H](OC)[C@@H](O[C@H]4C[C@H](OC)[C@@H](O)[C@H](C)O4)[C@H](C)O3)[C@@H](C)/C=C\C=C3\CO[C@@H]4[C@H](O)C(C)=C[C@@H](C(=O)O1)[C@]34O)O2 | < 4.70 | > 20 µM
32 | O=C(O)CCCCO/N=C(/c1cccnc1)c1cccc(C(F)(F)F)c1 [RIDOGREL] | < 4.70 | > 20 µM
33 | CCN1C[C@]2(COC)CC[C@H](OC)[C@]34[C@@H]5C[C@H]6[C@H](OC)[C@@H]5[C@@]5(C[C@@H]6OC)OCO[C@@]5([C@H]13)[C@@H](O)[C@H]24 | < 4.70 | > 20 µM
34 | CC12CCC(=O)C=C1CCC1C2C(=O)CC2(C)C1CCC2(O)C(=O)CO (centres undefined) | < 4.70 | > 20 µM
35 | Cc1cccc(Nc2ccncc2S(=O)(=O)NC(=O)NC(C)C)c1 [TORSEMIDE] | < 4.70 | > 20 µM
36 | O=S(=O)(c1cccc2cnccc12)N1CCCNCC1 [FASUDIL] | < 4.70 | > 20 µM
37 | CCn1cc(C(=O)O)c(=O)c2cc3c(cc21)OCO3 [OXOLINIC ACID] | < 4.70 | > 20 µM
38 | CC12CCC(C[N+](C)(CCC[N+](C)(C)C)C1)C2(C)C (centres undefined) | < 4.70 | > 20 µM
39 | Cc1c(Cl)cccc1Nc1ccccc1C(=O)O [TOLFENAMIC ACID] | < 4.70 | > 20 µM
40 | COc1ccccc1C(=O)NCCc1ccc(S(=O)(=O)NC(=O)NC2CCCC2)cc1 [GLISENTIDE] | < 4.70 | > 20 µM
41 | CCCC(=O)O[C@H]1CN2CC[C@H](O)[C@@H]2[C@@H](O)[C@@H]1O [CELGOSIVIR] | < 4.70 | > 20 µM
42 | CC12CCC(=O)C=C1CCC1C3CCC(O)(C(=O)CO)C3(C)CC(O)C12F (centres undefined) | < 4.70 | > 20 µM
43 | CC1=NC(=O)[C@](CCN(C(C)C)C(C)C)(c2ccccc2)[C@H]2CCCCN12 | < 4.70 | > 20 µM
44 | N=C1NC(=O)N2CC12 (centres undefined) [IMEXON] | < 4.70 | > 20 µM
45 | COc1cc(C(=O)NCCCCCC(=O)O)cc(OC)c1OC [CAPOBENIC ACID] | < 4.70 | > 20 µM
46 | C[N+](C)(C)CC(O)CC(=O)[O-] (centres undefined) [CARNITINE] | < 4.70 | > 20 µM
47 | C#C[C@]1(CO)O[C@@H](n2cnc3c(N)nc(F)nc32)C[C@@H]1O | < 4.70 | > 20 µM
48 | CNC[C@H](O)c1cccc(O)c1 [PHENYLEPHRINE] | < 4.70 | > 20 µM

Row | Compound | pIC50 | IC50
49 | COCCOC(=O)C1=C(C)NC(C)=C(C(=O)OC(C)C)C1c1cccc([N+](=O)[O-])c1 (centres undefined) [NIMODIPINE] | < 4.70 | > 20 µM
50 | CC#CC(=O)N1CCC[C@@H]1c1nc(-c2ccc(C(=O)Nc3ccccn3)cc2)c2c(N)nccn12 | < 4.70 | > 20 µM
51 | CC(C)c1c(CN(C)C(C)Cc2ccccc2)n(C)n(-c2ccccc2)c1=O (centres undefined) [FAMPROFAZONE] | < 4.70 | > 20 µM
52 | CC12CCC(=O)C=C1CCC1C3CC[C@](C)(O)C3(C)CC(O)[C@@]12F (some centres undefined) | < 4.70 | > 20 µM
53 | CCc1occc(=O)c1O [E637] | < 4.70 | > 20 µM
54 | CC(C)[C@@]1(NC(=O)[C@@H]2C[C@@H]3c4cccc5[nH]cc(c45)C[C@H]3N(C)C2)O[C@@]2(O)[C@@H]3CCCN3C(=O)[C@H](C)N2C1=O | < 4.70 | > 20 µM
55 | O=c1c(O)c(-c2ccccc2)oc2ccccc12 [FLAVONOL] | < 4.70 | > 20 µM
56 | CCC1(c2ccccc2)C(=O)NC(=O)N(C)C1=O (centres undefined) [MEPHOBARBITAL] | < 4.70 | > 20 µM
57 | O=C(NCC12CC3CC(CC(C3)C1)C2)c1cc(CCCNCCCO)ccc1Cl [AZD9056] | < 4.70 | > 20 µM
58 | C[C@@H](OC[C@@]1(c2ccccc2)CC[C@]2(CCC(=O)N2)CN1)c1cc(C(F)(F)F)cc(C(F)(F)F)c1 [ROLAPITANT] | < 4.70 | > 20 µM
59 | Cc1ncc(CO)c(C=O)c1O [PYRIDOXAL] | < 4.70 | > 20 µM
60 | Cn1cc(-c2ccncc2)c(-c2ccc(OCc3ccc4ccccc4n3)cc2)n1 [MARDEPODECT] | < 4.70 | > 20 µM
61 | CCN(CC)C(=S)SSC(=S)N(CC)CC | < 4.70 | > 20 µM
62 | CCC1(C2OC(C3OC(O)(CO)C(C)CC3C)CC2C)CCC(C2(C)CCC3(CC(O)C(C)C(C(C)C(OC)C(C)C(=O)O)O3)O2)O1 (centres undefined) | < 5.00 | > 10 µM
63 | CCCSc1nc(N[C@@H]2C[C@H]2c2ccc(F)c(F)c2)c2nnn([C@@H]3C[C@H](OCCO)[C@@H](O)[C@H]3O)c2n1 [TICAGRELOR] | < 4.70 | > 20 µM
64 | CCN(CC)C(=S)S [DITIOCARB] | < 4.70 | > 20 µM
65 | CC(C)N(CCNC(=O)CN1CCCC1=O)C(C)C | < 4.70 | > 20 µM
66 | Clc1cccc(N2CCNCC2)c1 [CHLOROPHENYLPIPERAZINE] | < 4.70 | > 20 µM
67 | CN(C(=O)C(c1ccccc1)c1ccccc1)[C@H](CN1CC[C@H](O)C1)c1ccccc1 [ASIMADOLINE] | < 4.70 | > 20 µM
68 | CCCCNc1ccc(C(=O)OCCOCCOCCOCCOCCOCCOCCOCCOCCOC)cc1 [BENZONATATE] | < 4.70 | > 20 µM
69 | COc1ccc2cc3[n+](cc2c1OC)CCc1cc2c(cc1-3)OCO2 [BERBERINE] | < 4.70 | > 20 µM
70 | CN1CCN(c2cc3c(nn2)Oc2ccccc2N3C)CC1 [PIPOFEZINE] | < 4.70 | > 20 µM
71 | CN(C)C(=O)Oc1cccc([N+](C)(C)C)c1 [NEOSTIGMINE] | < 4.70 | > 20 µM
72 | O=C(O)CC/C=C/CCC1C(OCc2ccc(-c3ccccc3)cc2)CC(O)C1N1CCCCC1 (centres undefined) | < 4.70 | > 20 µM
